Patent US10844049B2, “GLP-1R agonists and uses thereof” (QILU REGOR THERAPEUTICS INC., priority 2018, dated 2020)

Target: GLP1R (Homo sapiens, UniProt P43220)
Experiment: GLP1R cAMP HTRF assay, HEK293/GLP-1R/CRE/Luc (HEK293T cells)
Format: cell-based
Conditions: read-out: EC50
How it was run: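 cAMP accumulation via HTRF after 30 min, 37 °C exposure of 1000 receptor-expressing cells/well to compound (0.5% DMSO final) in IBMX (500 μM)/0.1% BSA DPBS.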

Sequence of GLP1R (P43220 24-463): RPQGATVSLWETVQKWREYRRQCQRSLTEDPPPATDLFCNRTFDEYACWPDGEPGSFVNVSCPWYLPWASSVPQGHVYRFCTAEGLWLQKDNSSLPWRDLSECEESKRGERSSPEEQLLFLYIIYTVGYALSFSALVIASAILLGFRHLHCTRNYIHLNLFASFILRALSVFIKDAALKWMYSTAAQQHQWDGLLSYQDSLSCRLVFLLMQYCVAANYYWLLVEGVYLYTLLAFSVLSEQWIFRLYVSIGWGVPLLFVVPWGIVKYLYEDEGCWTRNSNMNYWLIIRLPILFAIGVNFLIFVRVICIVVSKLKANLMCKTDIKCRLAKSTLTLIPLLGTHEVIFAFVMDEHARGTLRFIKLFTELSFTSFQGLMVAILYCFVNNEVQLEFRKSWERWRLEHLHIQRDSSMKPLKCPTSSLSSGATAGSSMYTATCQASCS

EC50 [µM] | Compound
≤ 0.015 | N#Cc1ccc(COc2nccc(C3=CCN(Cc4nc5ccc(C(=O)O)cc5n4C[C@@H]4CCO4)CC3)n2)c(F)c1 [Compound 177, (S)-2-((4-(2-((4-cyano-2-fluorobenzyl)oxy)pyrimidin-4-yl)-5,6-dihydropyridin-1(2H)-yl)methyl)-1-(oxetan-2-ylmethyl)-1H-benzo[d]imidazole-6-carboxylic add]
≤ 0.015 | O=C(O)c1ccc2nc(CN3CC=C(c4cccc(OCc5ccc(F)cc5Cl)n4)CC3)n(C[C@@H]3CCO3)c2c1 [Compound 144, (S)-2-((6-((2-chloro-4-fluorobenzyl)oxy)-3′,6′-dihydro-[2,4′-bipyridin]-1′(2′H)-yl)methyl)-1-(oxetan-2-ylmethyl)-1H-benzo[d]imidazole-6-carboxylic acid]
≤ 0.015 | C#Cc1ccc(COc2cccc(C3=CCN(Cc4nc5ccc(C(=O)O)cc5n4C[C@@H]4CCO4)CC3)n2)c(F)c1 [Compound 68, (S)-2-((6-((4-ethynyl-2-fluorobenzyl)oxy)-3‘f’-dihydro-[2,4′-bipyridin]-1′(2′H)-yl)methyl)-1-(oxetan-2-ylmethyl)-1H-benzo[d]imidazole-6-carboxylic acid]
≤ 0.015 | O=C(NO)c1ccc2nc(CN3CC=C(c4cccc(OCc5ccc(Cl)cc5F)n4)CC3)n(C[C@@H]3CCO3)c2c1 [Compound 174, (S)-2-((6-((4-chloro-2-fluorobenzyl)oxy)-5′,6′-dihydro-[2,4′-bipyridin]-1′(2′H)-yl)methyl)-N-hydroxy-1-(oxetan-2-ylmethyl)-1H-benzo[d]imidazole-6-carboxamide]
≤ 0.015 | O=C(O)c1ccc2nc(CN3CC=C(c4cccc(OCc5ccc(OC(F)(F)F)cc5)n4)CC3)n(C[C@@H]3CCO3)c2c1 [Compound 120, (S)-1-(oxetan-2-ylmethyl)-2-((6-((4-(trifluoromethoxy)benzyl)oxy)-3′,6′-dihydro-[2,4′-bipyridin]-1′(2′H)-yl)methyl)-1H-benzo[d]imidazole-6-carboxylic acid]
≤ 0.15 | O=C(O)c1ccc2nc(CN3CC=C(c4cccc(OCc5ccccn5)n4)CC3)n(C[C@@H]3CCO3)c2c1 [Compound 159, (S)-1-(oxetan-2-ylmethyl)-2-((6-(pyridin-2-ylmethoxy)-5′,6′-dihydro-[2,4′-bipyridin]-1′(2′H)-yl)methyl)-1H-benzo[d]imidazole-6-carboxylic acid]
≤ 1 | N#Cc1ccc(COc2ccc(F)c(N3CCN(Cc4nc5ccc(C(=O)O)cc5n4C[C@@H]4CCO4)CC3)c2)c(F)c1 [Compound 197, (S)-2-((4-(5-((4-cyano-2-fluorobenzyl)oxy)-2-fluorophenyl)piperazin-1-yl)methyl)-1-(oxetan-2-ylmethyl)-1H-benzo[d]imidazole-6-carboxylic add]
≤ 0.15 | O=C(O)c1ccc2nc(CN3CC=C(c4cccc(OCc5cc(F)cc(F)c5)n4)CC3)n(C[C@@H]3CCO3)c2c1 [Compound 142, (S)-2-((6-((3,5-difluorobenzyl)oxy)-3′,6′-dihydro-[2,4′-bipyridin]-1′(2′H)-yl)methyl)-1-(oxetan-2-ylmethyl)-1H-benzo[d]imidazole-6-carboxylic acid]
≤ 0.015 | O=C(O)c1ccc2nc(CN3CCN(c4ccc(F)c(OCc5ccc(Cl)cc5F)c4)CC3)n(C[C@@H]3CCO3)c2c1 [Compound 184, (S)-2-((4-(3-((4-chloro-2-fluorobenzyl)oxy)-4-fluorophenyl)piperazin-1-yl)methyl)-1-(oxetan-2-ylmethyl)-1H-benzo[d]imidazole-6-carboxylic acid]
≤ 0.015 | CC#Cc1ccc(COc2cccc(C3=CCN(Cc4nc5ccc(C(=O)O)cc5n4C[C@@H]4CCO4)CC3)n2)c(F)c1 [Compound 107, (S)-2-((6-((2-fluoro-4-(prop-1-yn-1-yl)benzyl)oxy)-3′,6′-dihydro-[2,4′-pyridin]-1′(2′H)-yl)methyl)-1-(oxetan-2-ylmethyl)-1H-benzo[d]imidazole-6-carboxylic acid]
≤ 1 | O=C(O)c1ccc2nc(CN3CC=C(c4nccc(NCc5ccc(Cl)cc5F)n4)CC3)n(C[C@@H]3CCO3)c2c1 [Compound 124, (S)-2-((4-(4-((4-chloro-2-fluorobenzyl)amino)pyrimidin-2-yl)-5,6-dihydropyridin-1(2H)-yl)methyl)-1-(oxetan-2-ylmethyl)-1H-benzo[d]imidazole-6-carboxylic add]
≤ 0.015 | O=C(O)c1ccc2nc(CN3CC=C(c4cccc(OCc5ccc(Cl)c(Cl)c5)n4)CC3)n(C[C@@H]3CCO3)c2c1 [Compound 115, (S)-2-((6-((3,4-dichlorobenzyl)oxy)-3′,6′-dihydro[2,4′-bipyridin]-1′(2′H)-yl)methyl)-1-(oxetan-2-ylmethyl)-1H-benzo[d]imidazole-6-carboxylic add]
≤ 0.015 | N#Cc1ccc(CNc2nc(C3=CCN(Cc4nc5ccc(C(=O)O)cc5n4C[C@@H]4CCO4)CC3)c(F)cc2F)c(F)c1 [Compound 217, (S)-2-((6-((4-cyano-2-fluorobenzyl)amino)-3,5-difluoro-3′,6′-dihydro-[2,4′-bipyridin]-1′(2′H)-yl)methyl)-1-(oxetan-2-ylmethyl)-1H-benzo[d]imidazole-6-carboxylic add]
≤ 0.015 | O=C(O)c1ccc2nc(CN3CC=C(c4ncc(F)c(OCc5ccc(C#CC6CC6)cc5F)n4)CC3)n(C[C@@H]3CCO3)c2c1 [Compound 209, (S)-2-((4-(4-((4-(cyclopropylethynyl)-2-fluorobenzyl)oxy)-5-fluoropyrimidin-2-yl)-3,6-dihydropyridin-1(2H)-yl)methyl)-1-(oxetan-2-ylmethyl)-1H-benzo[d]imidazole-6-carboxylic add]
≤ 0.15 | O=C(O)c1ccc2nc(CN3CCCN(c4cccc(OCc5ccc(Cl)cc5F)n4)CC3)n(C[C@@H]3CCO3)c2c1 [Compound 15, (S)-2-((4-(6-(4-chloro-2-fluorobenzyloxy)pyridin-2-yl)-1,4-diazepan-1-yl)methyl)-1-(oxetan-2-ylmethyl)-1 h-benzo[d]imidazole-6-carboxylic acid]
> 1 | O=C(O)c1ccc2nc(CN3CC=C(n4cccc(OCc5ccc(Cl)cc5F)c4=O)CC3)n(C[C@@H]3CCO3)c2c1 [Compound 51, (S)-2-((4-(3-(4-chloro-2-fluorobenzyloxy)-2-oxopyridin-1(2H)-yl)-5,6-dihydropyridin-1(2H)-yl)methyl)-1-(oxetan-2-ylmethyl)-1 h-benzo[d]imidazole-6-carboxylic acid]
> 1 | O=C(O)c1ccc2nc(CN3CCN(c4ccc5c(n4)N(Cc4ccc(Cl)cc4F)CCC5)CC3)n(C[C@@H]3CCO3)c2c1 [Compound 3, (S)-2-((4-(8-(4-chloro-2-fluorobenzyl)-5,6,7,8-tetrahydro-1,8-naphthyridin-2yl)piperazin-1-yl)methyl)-1-(oxetan-2-ylmethyl)-1 h-benzo[d]imidazole-6-carboxylic acid]
≤ 0.015 | O=C(O)c1ccc2nc(CN3CC=C(c4nccc(OCc5ccc(C#CC6CC6)cc5F)n4)CC3)n(C[C@@H]3CCO3)c2c1 [Compound 200, (S)-2-((4-(4-((4-(cyclopropylethynyl)-2-fluorobenzyl)oxy)pyrimidin-2-yl)-3,6-dihydropyridin-1(2H)-yl)methyl)-1-(oxetan-2-ylmethyl)-1H-benzo[d]imidazole-6-carboxylic acid]
≤ 0.015 | O=C(O)c1ccc2nc(CN3CC=C(c4cc(F)cc(OCc5ccc(Cl)cc5F)c4)CC3)n(C[C@@H]3CCO3)c2c1 [Compound 42, (S)-2-((4-(3-((4-chloro-2-fluorobenzyl)oxy)-5-fluorophenyl)-3,6-dihydropyridin-1(2H)-yl)methyl)-1-(oxetan-2-ylmethyl)-1 h-benzo[d]imidazole-6-carboxylic acid]
≤ 0.015 | Cc1cc2nc(CN3CC=C(c4cccc(OCc5ccc(Cl)cc5)n4)CC3)n(C[C@@H]3CCO3)c2cc1C(=O)O [Compound 111, (S)-2-((4-(6-(4-chlorobenzyloxy)pyridin-2-yl)-5,6-dihydropyridin-1(2H)-yl)methyl)-5-methyl-1-(oxetan-2-ylmethyl)-1H-benzo[d]imidazole-6-carboxylic acid]
> 1 | O=C(O)c1ccc2nc(CN3CC=C(c4ccc5c(n4)N(Cc4ccc(Cl)cc4F)CCCO5)CC3)n(C[C@@H]3CCO3)c2c1 [Compound 59, (S)-2-((4-(5-(4-chloro-2-fluorobenzyl)-2,3,4,5-tetrahydropyrido[3,2-b][1,4]oxazepin-7-yl)-3,6-dihydropyridin-1(2H)-yl)methyl)-1-(oxetan-2-ylmethyl)-1H-benzo[d]imidazole-6-carboxylic add]
≤ 1 | O=C(O)c1ccc2nc(CN3CC=C(c4cccc(OCc5c(Cl)cccc5Cl)n4)CC3)n(C[C@@H]3CCO3)c2c1 [Compound 138]
> 1 | Cn1ccnc1Cn1c(CN2CCN(c3ccc4c(n3)N(Cc3ccc(Cl)cc3F)CCO4)CC2)nc2ccc(C(=O)O)cc21 [Compound 5, 2-((4-(4-(4-chloro-2-fluorobenzyl)-3,4-dihydro-2 h-pyrido[3,2-b][1,4]oxazin-6-yl)piperazin-1-yl)methyl)-1-((l-methyl-1 h-imidazol-2-yl)methyl)-1 h-benzo[d] imidazole-6-carboxylic acid]
≤ 0.15 | O=C(O)c1ccc2nc(CN3CC=C(c4cccc(OCc5cc(Cl)ccc5F)n4)CC3)n(C[C@@H]3CCO3)c2c1 [Compound 140, (S)-2-((6-((5-chloro-2-fluorobenzyl)oxy)-3′,6′-dihydro-[2,4′-bipyridin]-1′(2′H)-yl)methyl)-1-(oxetan-2-ylmethyl)-1H-benzo[d]imidazole-6-carboxylic add]
≤ 0.015 | O=C(O)c1ccc2nc(CN3CC=C(c4cccc(OCc5cc(Cl)cc(C(F)(F)F)c5)n4)CC3)n(C[C@@H]3CCO3)c2c1 [Compound 143, (S)-2-((6-((3-chloro-5-(trifluoromethyl)benzyl)oxy)-3′,6′-dihydro-[2H′-bipyridin]-1′(2′H)-yl)methyl)-1-(oxetan-2-ylmethyl)-1H-benzo[d]imidazole-6-carboxylic acid]
≤ 0.15 | O=C(O)c1ccc2nc(CN3CCC(c4cccc(OCc5ccc(C#CC6CC6)cc5F)c4)CC3)n(C[C@@H]3CCO3)c2c1 [Compound 192, (S)-2-((4-(3-((4-(cyclopropylethynyl)-2-fluorobenzyl)oxy)phenyl)piperidin-1-yl)methyl)-1-(oxetan-2-ylmethyl)-1H-benzo[d]imidazole-6-carboxylic acid]
